Reference: paper PMC6384758, “Profiling and Pharmacokinetic Studies of Alkaloids in Rats After Oral Administration of Zanthoxylum nitidum Decoction by UPLC-Q-TOF-MS/MS and HPLC-MS/MS” (Molecules, 2019)
Like-named read-outs stand apart in the source and are kept apart here. Each block holds one compound with its values, some of them ahead of it.

What was measured:
[1] = Pharmacokinetic study in rats after oral administration of Z. nitidum decoction (HPLC-MS/MS); assay type: in vivo, Sprague–Dawley rats; conditions: for AUC(0-t) / AUC(0-inf) / Cmax / half-life / Tmax: Sprague-Dawley
Description: The HPLC analysis performed on a Surveyor plus HPLC system (Thermo Fisher Scientific, Waltham, MA, USA). The separation was executed by a Thermo Accucore aq C18 column (100 × 2.1 mm, 2.6 μm) (Thermo Fisher Scientific, Waltham, MA, USA) maintained at 30 °C. The mobile phase consisted of Solvent A (0.1% formic acid solution) and Solvent B (0.1% formic acid acetonitrile). The flow rate was 0.3 mL/min. The gradient program was as follows: 5–10% B at 0–5 min; 10–100% B at 5–15 min; 100–5% B at 15–15.1 min; 5% B at 15–20 min.
MS data were achieved on a triple-quadrupole mass spectrometer: TSQ Quantum Access (Thermo Fisher Scientific, Waltham, MA, USA) with electrospray ionization (ESI) source in positive mode. The instrument parameters were as follows: spray voltage at 3000 V, sheath gas and auxiliary gas with a flow of 30 and 5 arbitrary units, capillary temperature at 350 °C, collision gas pressure at 1.0 mTorr, skimmer offset at 2 V. The selected reaction monitoring (SRM) transitions used for MS analysis were as follows: m/z 342→297 for magnoflorine, 370→188 for α-allocryptopine, 260→227 for skimmianine, 356→192 for IS; the collision energies at 15 eV for magnoflorine, 30 eV for α-allocryptopine, skimmianine and IS. The data acquisition and processing was performed with Xcalibur 2.0 software (Thermo Fisher Scientific, Waltham, MA, USA).
100 μL plasma sample, 10 μL IS solution (200 ng/mL) and 300 μL acetonitrile were added to a 1.5 mL eppendorf tube and vortex-mixed for 5 min, then centrifuged at 13,000 (15,493× g) rpm for 10 min. The supernatant was transferred into another eppendorf tube and evaporated to dryness at 35 °C in vacuum using SpeedVac Concentration ((RVC 2-18, Christ). The residue was reconstituted in 100 μL acetonitrile and water (50:50, v/v) and centrifuged at 13,000 rpm (15,493× g) for 15 min.
For pharmacokinetic study, six rats were orally administered Z. nitidum decoction at a dose of 5.4 mL kg^−1 (5.4 mL decoction equal to 10.8 g crude drug) body weight. The blood samples were collected from orbital vein before dose and 0.17, 0.33, 0.67, 1, 2, 3, 4, 6, 8, 10, 12, and 24 after dose. The blood samples were then centrifuged at 3500 rpm (1274× g) for 15 min at 4 °C. The samples were stored at −80 °C. Data analysis was performed by Drug and Statistics (DAS) 2.0 software (Mathematical Pharmacology Professional Committee of China, Shanghai, China).

[2] = Stability of analytes in rat plasma under storage conditions; assay type: in vitro ADME
Description: The selectivity was assessed by analyzing the chromatograms of blank plasma of six different rats, a blank plasma with magnoflorine, α-allocryptopine, skimmianine and IS, and a plasma after dose. The linearity was determined by plotting the peak areas ratios (y) of each analyte to IS against the concentrations, and evaluated by least-squares linear regression. The lower limit of quantification (LLOQ) was defined as the lowest concentration point of the calibration curve (S/N > 10) with the accuracy within ±20% and precision lower than 20%. The accuracy and precision were evaluated by analyzing the six replicate QC samples on the same day (intra-day) and three consecutive days. The accuracy and precision were expressed as relative error (RE%) and relative standard deviation (RSD%), respectively. The extraction recovery was determined by comparing peak areas of the extracted QC samples with those of post-extracted spiked samples. The matrix effects was measured by calculated the analytes peak area ratios of post-extracted spiked samples to those of pure work solution. The stability was investigated by analyzing samples stability under diverse storage conditions: three freeze-thaw cycles, 8 h at 25 °C, −80 °C for 40 days and in autosampler for 24 h.

[3] = rats, oral Z. nitidum decoction

SMILES: COc1ccc2c(c1O)-c1c(O)c(OC)cc3c1[C@H](C2)[N+](C)(C)CC3 [Magnoflorine, magnoflorine]
AUC(0-t) ([1]; rat plasma, oral Z. nitidum decoction 5.4 mL kg−1, Mean ± SD, n = 6, read-out: AUC0-t): 408 ± 91.3 ng·h/mL | AUC(0-inf) ([1]; rat plasma, oral Z. nitidum decoction 5.4 mL kg−1, Mean ± SD, n = 6, read-out: AUC0-∞): 438 ± 106 ng·h/mL | Cmax ([1]; rat plasma, oral Z. nitidum decoction 5.4 mL kg−1, Mean ± SD, n = 6, read-out: Cmax): 113 ± 18.8 ng/mL | half-life ([1]; rat plasma, oral Z. nitidum decoction 5.4 mL kg−1, Mean ± SD, n = 6, read-out: T1/2 (converted)): 194 ± 78.6 min | Tmax ([1]; rat plasma, oral Z. nitidum decoction 5.4 mL kg−1, Mean ± SD, n = 6, read-out: Tmax): 63 ± 42.6 min | Cmax compared with that of skimmianine [1, 3]: about ten times higher | total exposure AUC0–∞ compared among the three components (in words) [1, 3]: the largest | Stability, RE (%) ([2]; rat, 5 ng/mL): −10.00% | Stability, RE (%) ([2]; rat, 50 ng/mL): 11.03% | Stability, RE (%) ([2]; rat, 160 ng/mL): 9.16% | Stability, RE (%) ([2]; rat, 8 h, 5 ng/mL): −5.14% | Stability, RE (%) ([2]; rat, 8 h, 50 ng/mL): 6.87% | Stability, RE (%) ([2]; rat, 8 h, 160 ng/mL): 5.74% | Stability, RE (%) ([2]; rat, 24 h, 5 ng/mL): −5.59% | Stability, RE (%) ([2]; rat, 24 h, 50 ng/mL): 9.24% | Stability, RE (%) ([2]; rat, 24 h, 160 ng/mL): 4.61% | Stability, RE (%) ([2]; rat, 40 days, 5 ng/mL): 10.17% | Stability, RE (%) ([2]; rat, 40 days, 50 ng/mL): −8.92% | Stability, RE (%) ([2]; rat, 40 days, 160 ng/mL): 5.74%

SMILES: COc1ccc2c(c[n+](C)c3c4cc5c(cc4ccc23)OCO5)c1OC [chelerythrine]
absorption (in words) ([1]; preliminary experiment, rats, oral Z. nitidum decoction): poor absorption

SMILES: COc1ccc2c(c1OC)CN(C)CCc1cc3c(cc1C(=O)C2)OCO3 [α-allocryptopine]
AUC(0-t) ([1]; in vivo, rat plasma, oral Z. nitidum decoction 5.4 mL kg−1, Mean ± SD, n = 6, read-out: AUC0-t): 180 ± 96.3 ng·h/mL | AUC(0-inf) ([1]; in vivo, rat plasma, oral Z. nitidum decoction 5.4 mL kg−1, Mean ± SD, n = 6, read-out: AUC0-∞): 186 ± 98.7 ng·h/mL | Cmax ([1]; in vivo, rat plasma, oral Z. nitidum decoction 5.4 mL kg−1, Mean ± SD, n = 6, read-out: Cmax): 100 ± 49.9 ng/mL | half-life ([1]; in vivo, rat plasma, oral Z. nitidum decoction 5.4 mL kg−1, Mean ± SD, n = 6, read-out: T1/2 (converted)): 46.8 ± 10.2 min | Tmax ([1]; in vivo, rat plasma, oral Z. nitidum decoction 5.4 mL kg−1, Mean ± SD, n = 6, read-out: Tmax): 28.2 ± 7.8 min | Cmax compared with that of skimmianine [1, 3]: about ten times higher | Stability, RE (%) ([2]; rat plasma, 8 h at room temperature, 5 ng/mL, n = 6): 12.53% | Stability, RE (%) ([2]; rat plasma, 8 h at room temperature, 50 ng/mL, n = 6): −7.13% | Stability, RE (%) ([2]; rat plasma, 8 h at room temperature, 160 ng/mL, n = 6): 3.27% | Stability, RE (%) ([2]; rat plasma, 24 h at 4 °C, 5 ng/mL, n = 6): 2.99% | Stability, RE (%) ([2]; rat plasma, 24 h at 4 °C, 50 ng/mL, n = 6): −6.21% | Stability, RE (%) ([2]; rat plasma, 24 h at 4 °C, 160 ng/mL, n = 6): 7.75% | Stability, RE (%) ([2]; rat plasma, 40 days at −80 °C, 5 ng/mL, n = 6): 8.59% | Stability, RE (%) ([2]; rat plasma, 40 days at −80 °C, 50 ng/mL, n = 6): −4.82% | Stability, RE (%) ([2]; rat plasma, 40 days at −80 °C, 160 ng/mL, n = 6): −6.91% | Stability, RE (%) ([2]; rat plasma, three freeze-thaw cycle, 5 ng/mL, n = 6): 8.97% | Stability, RE (%) ([2]; rat plasma, three freeze-thaw cycle, 50 ng/mL, n = 6): −5.58% | Stability, RE (%) ([2]; rat plasma, three freeze-thaw cycle, 160 ng/mL, n = 6): 4.24%

Results, then the compound that gave them:

AUC(0-inf) ([1]; rat, in vivo, po): 17.1 ± 6.32 ng·h/mL | AUC(0-t) ([1]; rat, in vivo, po): 11.1 ± 2.02 ng·h/mL | Cmax ([1]; rat, in vivo, po): 8.91 ± 1.89 ng/mL | Tmax ([1]; rat, in vivo, po): 22.8 ± 7.2 min | half-life ([1]; rat, in vivo, po): 359 ± 97.2 min | Stability, RE (%) ([2]; rat, 1 ng/mL): 10.43% | Stability, RE (%) ([2]; rat, 10 ng/mL): −5.95% | Stability, RE (%) ([2]; rat, 32 ng/mL): −9.01% | Stability, RE (%) ([2]; rat, 8 h, 1 ng/mL): −9.41% | Stability, RE (%) ([2]; rat, 8 h, 10 ng/mL): 6.62% | Stability, RE (%) ([2]; rat, 8 h, 32 ng/mL): 9.51% | Stability, RE (%) ([2]; rat, 24 h, 1 ng/mL): 9.47% | Stability, RE (%) ([2]; rat, 24 h, 10 ng/mL): −4.39% | Stability, RE (%) ([2]; rat, 24 h, 32 ng/mL): −1.09% | Stability, RE (%) ([2]; rat, 40 days, 1 ng/mL): 9.69% | Stability, RE (%) ([2]; rat, 40 days, 10 ng/mL): −6.48% | Stability, RE (%) ([2]; rat, 40 days, 32 ng/mL): −4.07%
SMILES: COc1ccc2c(OC)c3ccoc3nc2c1OC [Skimmianine, skimmianine]

absorption (in words) ([1]; rat, in vivo, po): poor absorption
SMILES: COc1cc2c[n+](C)c3c4cc5c(cc4ccc3c2cc1OC)OCO5 [nitidine]
